Assays:
Type in all cases: in vivo
Euphorbia heterophylla = experiment: Greenhouse trial, weed control efficacy on Euphorbia heterophylla
Experimental: In this example, synergy of the combination of L-glufosinate ammonium (150 gai/ha) and 2,4-D choline (137 gai/ha) Euphorbia heterophylla was determined using the calculated percentage efficacy after 7, 14, 21 days of application (DAA). The results are recorded in the Table 4 below:
In this example, synergy of using the combination of L-glufosinate ammonium (150 gai/ha) and 2,4-D choline (228 gai/ha) on Euphorbia heterophylla was determined using the calculated percentage efficacy after 14, 21 days of application (DAA).

Borreria verticilata = experiment: Greenhouse trial, weed control efficacy on Borreria verticilata; conditions: 7 DAA
Experimental: In this example, synergy from the combination of L-glufosinate ammonium (150 gai/ha) and 2,4-D choline (137 gai/ha) on Borrelia verticilata was determined using the calculated percentage efficacy after 7 days of application (DAA). The results are recorded in Table 1 below:
In this example, synergy of the combination of L-glufosinate ammonium (150 gai/ha) and 2,4-D choline (228 gai/ha) on Borrelia verticilata was determined using the calculated percentage efficacy after 7 days of application (DAA).

Eleusine indica = experiment: Greenhouse trial, weed control efficacy on Eleusine indica; conditions: Table 3
Experimental: In this example, synergy of the combination of L-glufosinate ammonium (150 gai/ha) and 2,4-D choline (228 gai/ha) on Eleusine indica was determined using the calculated percentage efficacy after 7, 14, 21 and 28 days of application (DAA).

Question: For `C[N+](C)(C)CCO.O=C([O-])COc1ccc(Cl)cc1Cl` [2,4-D choline], which “Observed efficacy (%) of 2,4-D choline (137 gai/ha)” value (Euphorbia heterophylla; Table 4, 7 DAA) is on record?
Answer: 35%

Question: And the “Observed efficacy (%) of 2,4-D choline (137 gai/ha)” value (Euphorbia heterophylla; Table 4, 14 DAA)?
Answer: 30%

Question: What about the “Observed efficacy (%) of 2,4-D choline (137 gai/ha)” value (Euphorbia heterophylla; Table 4, 21 DAA) of the same compound?
Answer: 25%

Question: And the “Observed efficacy (%) of 2,4-D choline (228 gai/ha)” value (Euphorbia heterophylla; Table 5, 14 DAA)?
Answer: 30%

Question: What about the “Observed efficacy (%) of 2,4-D choline (228 gai/ha)” value (Euphorbia heterophylla; Table 5, 21 DAA) of the same compound?
Answer: 30%

Question: What about the “Observed efficacy (%) of 2,4-D choline (137 gai/ha)” value (Borreria verticilata; Table 1, 137 gai/ha) of the same compound?
Answer: 30%

Question: What about the “Observed efficacy (%) of 2,4-D choline (228 gai/ha)” value (Borreria verticilata; Table 2, 228 gai/ha) of the same compound?
Answer: 30%

Question: And the “Observed efficacy (%) of 2,4-D choline (228 gai/ha)” value (Eleusine indica; 7 DAA)?
Answer: 10%

Question: And the “Observed efficacy (%) of 2,4-D choline (228 gai/ha)” value (Eleusine indica; 14 DAA)?
Answer: 10%

Question: What about the “Observed efficacy (%) of 2,4-D choline (228 gai/ha)” value (Eleusine indica; 21 DAA) of the same compound?
Answer: 10%

Question: What about the “Observed efficacy (%) of 2,4-D choline (228 gai/ha)” value (Eleusine indica; 28 DAA) of the same compound?
Answer: 5%

Question: With `CP(=O)(O)CC[C@H](N)C(=O)O.N` [L-glufosinate ammonium, ammonium (2S)-2-amino-4-(methylphosphinato)butyric acid] as the compound, how does the “Observed efficacy (%) of L-glufosinate ammonium (150 gai/ha)” value (“Observed efficacy (%) … (150 gai/ha)” for short) (Euphorbia heterophylla; Table 4, 7 DAA) read?
Answer: 95%

Question: What about the “Observed efficacy (%) … (150 gai/ha)” value (Euphorbia heterophylla; Table 4, 14 DAA) of the same compound?
Answer: 98%

Question: What about the “Observed efficacy (%) … (150 gai/ha)” value (Euphorbia heterophylla; Table 4, 21 DAA) of the same compound?
Answer: 98%

Question: What about the “Observed efficacy (%) … (150 gai/ha)” value (Euphorbia heterophylla; Table 5, 14 DAA) of the same compound?
Answer: 98%

Question: And the “Observed efficacy (%) … (150 gai/ha)” value (Euphorbia heterophylla; Table 5, 21 DAA)?
Answer: 98%

Question: And the “Observed efficacy (%) … (150 gai/ha)” value (Borreria verticilata; Table 1)?
Answer: 65%

Question: And the “Observed efficacy (%) … (150 gai/ha)” value (Borreria verticilata; Table 2)?
Answer: 65%

Question: What about the “Observed efficacy (%) … (150 gai/ha)” value (Eleusine indica; 7 DAA) of the same compound?
Answer: 70%

Question: What about the “Observed efficacy (%) … (150 gai/ha)” value (Eleusine indica; 14 DAA) of the same compound?
Answer: 65%

Question: What about the “Observed efficacy (%) … (150 gai/ha)” value (Eleusine indica; 21 DAA) of the same compound?
Answer: 60%

Question: What about the “Observed efficacy (%) … (150 gai/ha)” value (Eleusine indica; 28 DAA) of the same compound?
Answer: 50%
